# According to patent US20050277622A1, “1-Calcium phosphate-uracil and method for preparing thereof” (priority 2004, published 2005):
# Assays:
# Type in all cases: in vivo, human
# [1] = Clinical Case 6: constipation for about 10 years; details: 4 persons, 1-2 times a week on conventional drugs; oral, 12 mg˜15 mg one time per day for 1 day
# Source text: 4 persons, who had suffered from constipation for about 10 years, defecated 1-2 times a week when administrated with conventional drugs.
# influenza [2] = test: Clinical Case 5: administration in advance during influenza period; details: 2 of 8 persons in a dormitory, oral in advance, 15 mg one time per day for 1 day; other 6 persons all infected
# [3] = Clinical Case 3: cold with fever of 39° C.; details: person, oral, 15 mg per day for 1 day
# Source text: Therapeutic effect: fever was allayed after 1 day and symptom of cough disappeared after 2 days.
# [4] = Clinical Case 4: fever of 40.5° C.; details: person, oral, 15 mg one time per day for 1 day
# Source text: Therapeutic effect: fever was allayed after 1 day and symptom of cough disappeared after 3 days.
# [5] = Clinical Case 8: sleeping and stamina; details: 20 persons aging 12˜70 years; 15 mg per day for one day
# Source text: The medicament can ameliorate sleeping and supplement stamina.
# [6] = Clinical Case 9: liver cancer in a most serious stage; details: person; oral, 15 mg one time per day for 10 months
# Procedure: A person, who suffered liver cancer in a most serious stage, was administrated orally with medicament of 1-calcium phosphate-uracil for 10 months, one time per day, 15 mg each time.
# Therapeutic effect: liver tumor was disappeared upon the examination of CT.
# [7] = Clinical Case 7: frequent premature beat, cardiac distress and constipation; details: person, oral
# Procedure: A person, who had suffered from frequent premature beat, cardiac distress for 3 years and constipation for 5 years, was administrated orally with medicament of 1-calcium phosphate-uracil for 20 days, 13 mg per day.
# The therapeutic effect: the symptoms of palpitation premature beat and cardiac distress disappeared completely after 20 days from administration and constipation symptom disappeared after 1 day from administration.
# [8] = Clinical Case 1: continued bad cough not susceptive to antibiotics therapy; details: person two, oral, 15 mg per day for 5 days
# Procedure: person two, who had been suffering from a continued bad cough for 2 months and not susceptive to antibiotics therapy, was administrated orally with medicament of 1-calcium phosphate-uracil for 5 days, 15 mg per day.
# influenza [9] = test: Clinical Case 5: treatment of persons infected with influenza; details: 2 infected persons, oral, 15 mg one time per day for 3 days
# Procedure: One day after infection, 2 of 6 infected persons were administrated orally with medicament of 1-calcium phosphate-uracil for 3 day, one time per day, 15 mg each time. Therapeutic effect: fever was allayed after 1 day and symptom of cough faded away after 3 days. Instead of being administrated with medicament of 1-calcium phosphate-uracil, the other 4 infected persons were treated according to conventional therapeutic regimen, recovered until after 15 days.
# [10] = Clinical Case 2: cough, hyperplasia of prostate and constipation; details: person one, oral, 15 mg per day for 5 days
# Procedure: person one, who had been suffering from cough for about 50 years and hyperplasia of prostate for 7 years and recently relapsed into continued cough for 15 days and constipation, was administrated orally with medicament of 1-calcium phosphate-uracil for 5 days, 15 mg per day.
substance,measurement,setting,value
1-calcium phosphate-uracil,defecation,[1],"defecated smoothly, once a day"
same,infection with influenza,influenza [2],not infected with influenza
same,fever was allayed after,[3]; fever of 39° C.,1 days
same,symptom of cough disappeared after,[3],2 days
same,fever was allayed after,[4]; fever of 40.5° C.,1 days
same,symptom of cough disappeared after,[4],3 days
same,sleeping on the same day,[5],good sleeping
same,stamina in the next day,[5],full of vigor
same,liver tumor upon the examination of CT,[6],disappeared
same,constipation symptom disappeared after,"[7]; constipation for 5 years, 13 mg per day",1 days
same,symptoms of palpitation premature beat and cardiac distress disappeared completely after,[7]; 13 mg per day for 20 days,20 days
same,symptom of cough,[8]; cough for 2 months,cured completely
same,symptom of incontinence of urine,[8],disappeared
same,fever was allayed after,influenza [9]; one day after infection,1 days
same,symptom of cough faded away after,influenza [9]; conventional regimen recovered after 15 days,3 days
same,cough symptom,[10]; continued cough for 15 days,alleviated
same,frequency of nocturia,[10]; hyperplasia of prostate for 7 years,decreased significantly
same,constipation,[10],disappeared
